The results in this text go back to patent US20120204273A1, “COMPOSITIONS RELATING TO A PHOSPHOPROTEIN AND METHODS OF USE” (SANFORD-BURNHAM MEDICAL RESEARCH INSTITUTE, priority 2010, published 2012).

This experiment deals with CDP138. The experiment in a line: SILAC quantitative phosphoproteomics with PAS antibody immunoprecipitation in 3T3-L1 adipocytes. The experiment is classed as cell-based, mouse. The following applies: insulin-stimulated adipocytes. The procedure:
Preparation of the Triple-Labeling SILAC Media. Arginine- and lysine-free DMEM was divided into three equal portions and 28 mg/liter of the three Arginine isotopes were added separately to make the Arg-0, Arg-6, and Arg-10 media, respectively. In addition, 48.7 mg/liter L-lysine, L-lysine-D4, and L-lysine13C6, 15N2 were supplemented separately to the three lots containing Arg-0, Arg-6, and Arg-10. Finally, glutamine and antibiotics were added to the media together with the full complement of amino acids (Arg-0/Lys-H4, Arg-6/Lys-D4, and Arg-10/Lys-8) and then sterile-filtered (Millipore). The sterile media were separated into two portions for dialyzed serum-containing and serum free media.
Mass Spectrometric Analysis. For SILAC quantitative proteomic study, the mixture of total lysates from the 3 different groups (as shown in FIG. 1A) was used for immunoprecipitation with PAS antibodies. Enriched proteins were resolved by SDS-PAGE. […] Only proteins that had at least 2 ion scores >20 were identified and quantified. MaxQuant was used to verify and quantify the resulting peptide pairs.
Identification of CDP138 as a novel Akt2 substrate using SILAC-based quantitative proteomics. […] The tryptic peptides were subsequently analyzed by tandem mass spectrometry (MS). […]

With insulin, the “enrichment of CDP138 in PAS immunoprecipitate” value came out at 2.8 fold.
